{"source": "patent EP1223923B1", "about": "“UNSATURATED ARYL SULFONES FOR PROTECTING NORMAL CELLS FROM CYTOTOXICITY OF CHEMOTHERAPEUTIC AGENTS” (Temple University - Of The Commonwealth System of Higher …, priority 1999, dated 2001)", "assay_type_in_all_cases": "cell-based", "key": {"Normal human HFL-1 cells": {"system": "Normal human HFL-1 cells", "assay": "Cytoprotection assay against paclitaxel", "design": "key: +: A compound was deemed to be active if the number of viable cells following the combination treatment was higher than the number of cells after treatment with paclitaxel alone", "conditions": "2.0 or 10 µM sulfone; paclitaxel (250 nM) at time zero or 24 hours later; viable cells after 96 hours of paclitaxel", "experimental": "The cytoprotective activity of the same styryl benzylsulfones was determined as follows. Normal human HFL-1 cells were plated at a cell density of 1.0 x 10^5 cells per well in six culture plates. Styryl benzylsulfone was added 24 hours later at a final concentration of either 2.0 or 10 µM. The time of styryl sulfone addition was designated as time zero. Paclitaxel (250 nM) was added at either time zero, or 24 hours after time zero. The total number of viable cells was determined, as described above, after 96 hours of paclitaxel treatment. A compound was deemed to be active if the number of viable cells following the combination treatment was higher than the number of cells after treatment with paclitaxel alone. Table 7: Antitumor and Cytoprotective Effect of Styryl Sulfones"}, "[1]": {"assay": "Plating efficiency (colony-forming ability) of normal human fibroblasts", "conditions": "hfl-1 cells, 24 hour incubation with drug, replated, colonies counted after 20 days, read-out: concentration of the drug causing 50% inhibition in plating efficiency", "experimental": "HFL-1 cells (normal, human diploid lung fibroblasts) purchased from ATCC were plated after first passage at low density (2.0 x 10^5cells) per well (6 well dishes) in one ml of growth medium (DMEM completed with 10% fetal bovine serum and pen/strep). Twenty-four hours later, (E)-4-fluorostyryl-4-chlorobenzylsulfone was added to each well at the following final concentrations; 0 µM, 2.5. µM, 5.0 µM, 25 µM, 50 µM, and 75 µM. After a 24 hour incubation period, the wells were washed 3x with 5 ml normal growth medium and each well was trypsinized and cell counts were determined. To determine colony-forming ability, the cells from each treatment were then serial diluted and replated into 100mm dishes such that each group was split into 3 replating groups consisting of 10, 100, 200 cells per plate. The groups were plated in triplicate. The cells were incubated for 20 days under normal growth conditions and colonies were counted after staining with modified Wright stain (Sigma). The number of colonies from each plate in triplicate were determined and the average for each group was plotted. The concentration of the drug causing 50% inhibition in plating efficiency was calculated and found to be 70 µM."}, "HFL-1 cells": {"system": "HFL-1 cells", "assay": "Protection of normal human fibroblasts from anticancer agent cytotoxicity (protection ratio, Trypan blue exclusion)", "conditions": "2.0 µM sulfone 24 hour preincubation, viable cells 96 hours after cytotoxic agent", "experimental": "HFL-1 cells were plated at a cell density of 1.0 x 10^5 in 1 ml of medium. Twenty-four hours following plating, 2.0 µM of (E)-4-fluorostyryl-4-chlorobenzylsulfone was added to the medium. Following a 24 hour preincubation with the styryl sulfone, the various cytotoxic agents listed in Table 6 were added to the cells, at the concentrations given in Table 6. the number of viable cells was determined by Trypan blue exclusion using a hematocytometer 96 hours after exposure to cytotoxic agent. The \"Protection Ratio\" is the number of viable cells following treatment with (E)-4-fluorostyryl-4-chlorobenzylsulfone and cytotoxic agent, divided by the number of viable cells remaining after treatment with cytotoxic agent alone. A protection ratio of 2 or more is considered highly significant, while is protection ratio of 1.5-2 is considered less significant. […] Table 6: Protective Effect of (E)-4-Fluorostyryl-4-Chlorobenzylsulfone on HFL-1 Cells Treated with Cytotoxic Drugs"}}, "data": [{"smiles": "O=C(O)c1ccc(/C=C/S(=O)(=O)Cc2ccc(Cl)cc2)cc1", "note": "[Example 10, (E)-4-carboxystyryl-chlorobenzyl sulfone]", "values": [{"measurement": "Cytoprotection", "setting": "Normal human HFL-1 cells", "value": "+"}]}, {"smiles": "O=C(C(=Cc1ccc(F)cc1)S(=O)(=O)c1ccccc1)c1ccccc1", "note": "[Example 12, 2-(phenylsulfonyl)-1-phenyl-3-(4-fluorophenyl)-2-propen-1-one]", "values": [{"measurement": "Cytoprotection", "setting": "Normal human HFL-1 cells", "value": "+"}]}, {"smiles": "O=S(=O)(/C=C/c1ccc(F)cc1)Cc1ccc(Cl)cc1", "note": "[Example 7, (E)-4-fluorostyryl-4-chlorobenzyl sulfone]", "values": [{"measurement": "CC50 at 24 h", "setting": "[1]", "value": 70, "unit": "µM"}, {"measurement": "Protection Ratio", "setting": "HFL-1 cells; 5-fluorouracil 20 µM (DNA antimetabolite)", "value": 1.3}, {"measurement": "Protection Ratio", "setting": "HFL-1 cells; camptothecin 0.5 µM (topoisomerase I inhibitor)", "value": 2.1}, {"measurement": "Protection Ratio", "setting": "HFL-1 cells; cisplatin 5.0 µM (alkylating agent)", "value": 1.3}, {"measurement": "Protection Ratio", "setting": "HFL-1 cells; doxorubicin 0.4 µM (topoisomerase II inhibitor)", "value": 1.5}, {"measurement": "Protection Ratio", "setting": "HFL-1 cells; etoposide 3.0 µM (topoisomerase II inhibitor)", "value": 3.5}, {"measurement": "Protection Ratio", "setting": "HFL-1 cells; mitoxantrone 0.3 µM (topoisomerase II inhibitor)", "value": 2.0}, {"measurement": "Protection Ratio", "setting": "HFL-1 cells; paclitaxel 0.25 µM (antimitotic)", "value": 2.5}, {"measurement": "Protection Ratio", "setting": "HFL-1 cells; vincristine 0.25 µM (antimitotic)", "value": 3.0}, {"measurement": "Cytoprotection", "setting": "Normal human HFL-1 cells", "value": "+"}]}, {"smiles": "O=S(=O)(/C=C/c1ccc(Cl)cc1)Cc1ccc(Cl)cc1", "note": "[Example 8, (E)-4-chlorostyryl-4-chlorobenzyl sulfones]", "values": [{"measurement": "Cytoprotection", "setting": "Normal human HFL-1 cells", "value": "+"}]}, {"smiles": "O=S(=O)(/C=C/c1ccc(F)cc1)Cc1ccc(Cl)cc1Cl", "note": "[Example 11, (E)-4-fluorostyryl-2,4-dichlorobenzyl sulfone]", "values": [{"measurement": "Cytoprotection", "setting": "Normal human HFL-1 cells", "value": "+"}]}, {"smiles": "O=S(=O)(/C=C/c1ccc(F)cc1Cl)Cc1ccc(Cl)cc1", "note": "[Example 9, (E)-2-chbro-4-fluorostryryl4-chlorobenzl sulfone]", "values": [{"measurement": "Cytoprotection", "setting": "Normal human HFL-1 cells", "value": "+"}]}]}
